Source: patent US20260078130A1, “NAMPT MODULATORS, PREPARATIONS, AND USES THEREOF” (SIRONAX LTD., priority 2022, published 2026)
Like-named read-outs stand apart in the source and are kept apart here.

What was measured:
[1] = system: endogenous NAMPT in U2OS cells; test: Cellular NAD+ modulation assay (NAD/NADH-Glo, U2OS cells); format: cell-based; details: Homo sapiens; for maximal fold induction: read-out: Cellular Emax
In short: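 NAD/NADH-Glo luminescence quantified NAD+ after acid treatment (60 °C, 15 min) and neutralization of DTAB lysates. Beforehand, U2OS cells seeded 16 h earlier received compound concentration series for 24 h at 37 °C. Values given as half-maximal activation concentration (EC50) and maximal fold change versus DMSO (Emax).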

[2] = target: T1, human enzyme NAMPT (full length) (Homo sapiens, UniProt P43490); test: NMN fluorescence biochemical assay (stimulation of NMN synthesis by NAMPT); details: for EC50: concentration giving half-maximal activation, read-out: Enzymatic EC50; for Enzymatic Emax: fold change of maximal activation compared to DMSO
T1 construct: human enzyme NAMPT (full length)
T1 sequence (P43490 whole entry): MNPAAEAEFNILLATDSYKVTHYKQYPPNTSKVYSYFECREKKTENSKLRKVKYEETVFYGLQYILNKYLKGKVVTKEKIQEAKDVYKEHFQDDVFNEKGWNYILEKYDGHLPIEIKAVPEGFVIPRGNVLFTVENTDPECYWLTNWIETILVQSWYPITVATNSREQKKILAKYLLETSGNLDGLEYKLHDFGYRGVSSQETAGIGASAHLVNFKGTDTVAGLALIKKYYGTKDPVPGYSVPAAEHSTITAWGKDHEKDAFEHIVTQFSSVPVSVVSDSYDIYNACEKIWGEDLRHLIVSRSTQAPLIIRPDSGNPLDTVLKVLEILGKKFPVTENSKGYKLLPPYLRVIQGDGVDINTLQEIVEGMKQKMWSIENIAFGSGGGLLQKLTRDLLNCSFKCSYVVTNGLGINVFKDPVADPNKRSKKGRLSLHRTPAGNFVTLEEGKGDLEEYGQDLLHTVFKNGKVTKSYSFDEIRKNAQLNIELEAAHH
In short: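 Full-length human NAMPT (100 nM) was preincubated 15 min at 37 °C with compound in 50 mM Tris-HCl pH 7.5, 10 mM MgCl2, 2 mM DTT, then reacted 1 h at 37 °C with 50 μM NAM, 100 μM PRPP, 4 mM ATP (stated solution concentrations). NMN was derivatised with acetophenone/KOH then formic acid and read at Ex/Em 382/445 nm; EC50 and Emax (fold over DMSO) reported.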

[3] = 24 hours incubation, cellular NAD+
[4] = NMN fluorescence assay, purified human NAMPT 100 nM
[5] = 24 hours incubation with compound
[6] = NMN synthesis by purified human NAMPT (100 nM)

Structure (SMILES) | EC50 [1, 3] [nM] | EC50 [2, 4] [nM] | Enzymatic Emax [2] | EC50 [1, 5] [nM] | EC50 [2, 6] [nM] | maximal fold induction [1, 3] | maximal fold induction [1, 5]
COC(=O)Nc1ccc(CN2Cc3ccccc3C2=O)cc1 [Compound 294, methyl (4-((1-oxoisoindolin-2-yl)methyl)phenyl)carbamate] |  |  | C (2≥C) | 5000 to 50000 | ≥ 5000 |  | > 1.5
Cn1ncc(Cl)c1CC1c2cc(C3COC3)ccc2C(=O)N1Cc1ccc2[nH]nnc2c1 (centres unmarked) [Compound 370, 2-((1H-benzo[d][1,2,3]triazol-5-yl)methyl)-3-((4-chloro-1-methyl-1H-pyrazol-5-yl)methyl)-5-(oxetan-3-yl)isoindolin-1-one] | < 500 | < 500 | B (3≥B>2) |  |  | > 1.5 | 
Cc1ccc(C#N)c(CC2c3ccccc3C(=O)N2Cc2ccc3[nH]c(=O)oc3c2)c1 (centres unmarked) [Compound 164, 4-methyl-2-((3-oxo-2-((2-oxo-2,3-dihydrobenzo[d]oxazol-6-yl)methyl)isoindolin-1-yl)methyl)benzonitrile] |  |  | B (3≥B>2) | < 500 | < 500 |  | > 1.5
O=C1c2ccccc2C(Cc2nnc(Cl)cc2Cl)N1Cc1ccc2[nH]c(=O)oc2c1 (centres unmarked) [Compound 227, 6-((1-((4,6-dichloropyridazin-3-yl)methyl)-3-oxoisoindolin-2-yl)methyl)benzo[d]oxazol-2(3H)-one] |  |  | A (A>3) | 500 to 5000 | 500 to 5000 |  | > 1.5
O=c1c2ccccc2ccn1Cc1ccc2[nH]nnc2c1 [Compound 7, 2-((1H-benzo[d][1,2,3]triazol-5-yl)methyl)isoquinolin-1(2H)-one] |  |  | B (3≥B>2) | 5000 to 50000 | ≥ 5000 |  | 1.2 to 1.5
Cc1ccnc(C#N)c1CC1c2cccc(F)c2C(=O)N1Cc1ccc2[nH]nnc2c1 (centres unmarked) [Compound 356, 3-((2-((1H-benzo[d][1,2,3]triazol-5-yl)methyl)-4-fluoro-3-oxoisoindolin-1-yl)methyl)-4-methylpicolinonitrile] | < 500 | < 500 | A (A>3) |  |  | > 1.5 | 
Cc1ccnc(C(C)(C)O)c1CC1c2ccccc2C(=O)N1Cc1ccc2[nH]nnc2c1 (centres unmarked) [Compound 375, 2-((1H-benzo[d][1,2,3]triazol-5-yl)methyl)-3-((2-(2-hydroxypropan-2-yl)-4-methylpyridin-3-yl)methyl)isoindolin-1-one] | < 500 | < 500 | A (A>3) |  |  | > 1.5 | 
O=C1c2ccccc2C(Cc2ccccn2)N1Cc1ccc2[nH]c(=O)oc2c1 (centres unmarked) [Compound 129, 6-((1-oxo-3-(pyridin-2-ylmethyl)isoindolin-2-yl)methyl)benzo[d]oxazol-2(3H)-one] |  |  | A (A>3) | 500 to 5000 | 500 to 5000 |  | > 1.5

Second part, led by results:

EC50 [1, 3] [nM] | EC50 [2, 4] [nM] | Enzymatic Emax [2] | EC50 [1, 5] [nM] | EC50 [2, 6] [nM] | Structure (SMILES) | maximal fold induction [1, 3] | maximal fold induction [1, 5]
< 500 | 500 to 5000 | A (A>3) |  |  | [2H]C1([2H])NC(=O)OC12CC(CN1C(=O)c3ccccc3C1Cc1c(Cl)cnn1C)C2 (centres unmarked) [Compound 535, 2-((1-((4-chloro-1-methyl-1H-pyrazol-5-yl)methyl)-3-oxoisoindolin-2-yl)methyl)-5-oxa-7-azaspiro[3.4]octan-6-one-8,8-d2] | > 1.5 | 
5000 to 50000 | 500 to 5000 | C (2≥C) |  |  | Cn1ncc(Cl)c1CC1c2cc(CN3CCCC3)ccc2C(=O)N1CC1CC2(CNC(=O)O2)C1 (centres unmarked) [Compound 462, 2-((3-((4-chloro-1-methyl-1H-pyrazol-5-yl)methyl)-1-oxo-5-(pyrrolidin-1-ylmethyl)isoindolin-2-yl)methyl)-5-oxa-7-azaspiro[3.4]octan-6-one] | > 1.5 | 
< 500 | 500 to 5000 | A (A>3) |  |  | Cn1ncc(Cl)c1CC1c2ccccc2C(C)(C)N1C/C=C/c1c[nH]nn1 (centres unmarked) [Compound 606, (E)-2-(3-(1H-1,2,3-triazol-4-yl)allyl)-3-((4-chloro-1-methyl-1H-pyrazol-5-yl)methyl)-1,1-dimethylisoindoline] | > 1.5 | 
